Laboratory results: patent publication US8217068B2, “Compound with anesthetics activity, methods for its production and pharmaceutical compositions comprising the same” (Universidade Federal de Pernambuco—UFPE, priority 2007, dated 2012)

Legend:
Format in all cases: in vivo
[1] = tested on: male Swiss mice; experiment: Hot Plate Test, analgesic activity (% AA) after i.p. administration
Procedure: The activity of several compounds with action in central nervous system as opioids, which the main drug is morphine, and the alpha-2 adrenoceptor agonist as clonidine have been identified by this method.
The analgesic activity of LPSF-PT-31, GIRSUPAN was investigated in male Swiss mice weighting 18-24 grams using the Hot Plate Test method (Brain Res. 1983, 245-252). The animals were positioned on a hot plate stabilized at 52° C. using the equipment Analgesic Meter-Letica LE 7406. When the pain threshold was achieved the animals raised and licked the front paw to cool down the temperature. The time between positioning the animals on the plate and lick the paw was the latency of the pain reaction. The maximal time (cut-off) allowed to the animals staying on the hot plate was three times the latency time measured on the control. The cut-off was very important to avoid skin damage of the paw.
The analgesic effect of the tested compounds was converted to a unit denominated analgesic activity (% AA) (Brain Res. 1983, 245-252) calculated by equation % AA=((post-drug latency)−(control latency))/((cut off)−(control latency))×100. The experimental protocol used to test the analgesic effect of the compound LPSF-PT-31, GIRSUPAN, consisted to measure the AA in the control condition (before drug administration) and after (i.p.) intraperitoneal administration of increasing dose (1, 5, 10 and 15 mg·kg^−1).
In another experimental group, dimethyl sulfoxide used as vehicle for diluting LPSF-PT-31, GIRSUPAN, was i.p. administered at same volume used for the tested drug. The AA was measured until complete recovery to the control condition.

[2] = tested on: male Swiss mice; experiment: Isobolographic analysis of the combination with morphine (analgesic effect, DE50); details: i.p., combination of fractions of DE50 of each drug, FIG. 3
Procedure: First, we determined the dose of morphine that cause 50% of maximal analgesic effect (DE50) after administration (i.p.) in incremental doses. […] Fraction of association of DE50 of each drug was administrated and the DE50 of combination was determined. A isobolographic analysis (FIG. 3) using the DE50 of each drug and of the combination was performed using a computer program (Life Sci 1989 45: 947-961) to determine the type of interaction.

[3] = tested on: Wistar male rats; experiment: Hot Plate analgesic effect after intrathecal administration
Procedure: Stimulation of alpha-2 adrenoceptors distributed at spinal cord cause analgesia. […] Thus, the analgesic activity of LPSF-PT-31, GIRSUPAN was investigated after intrathecal administration. Wistar male rats weighting 240-280 grams were positioned in abdominal under light general anesthesia with sevoflurane. Puncture between L4-L5 was performed with low diameter needle (29 G) and LPSF-PT-31, GIRSUPAN was injected at dose of 20, 40, 80 or 160 μg diluted in constant volume of 50 μl. Sevoflurane was the elected anesthetic due to low blood solubility causing a fast induction and recovery of anesthesia.
Thus, the animals were completely recovered few minutes after punction and injection LPSF-PT-31, GIRSUPAN and AA activity started to measure from 10 minutes. […] The maximal analgesic effect measured by Hot Plate was ca. 40% sustained by 180 minutes. This intensity of analgesic effect is observed with alpha-2 adrenoceptor agonist as clonidine.

[4] = tested on: male Swiss mice; experiment: Sedative activity by measuring motor activity (Motor Activity Monitor)
Procedure: The sedative activity of 3-(2-chloro-6-fluoro-benzyl)-imidazolidine-2,4-dione LPSF-PT-31, GIRSUPAN was investigated in male Swiss mice weighting 18-24 grams by measuring the motor activity (Motor Activity Monitor, Letica LE 8811). In this equipment the animals are positioned in an open square field and a set of invisible beans cross the field. The interruption of the beans was used to quantify the motor activity. After a period of adaptation the motor activity of the animals was measured during 20 min.
Decrease of motor activity represents reduction of brain activity and this observation is useful to investigate the effect of drug with sedative, hipnotic, anxyolitic and general anesthetic properties (Bioorg. Med. Chem. 2006, 14:632-640). Thus, measurement of motor activity is not a method to identify a specific group of pharmacological class.

[5] = tested on: Wistar male rats; experiment: Activity on cardiovascular system: blood pressure and EKG recording in awake animals; details: 10 mg/kg single dose through external jugular vein
Procedure: Hypotension and reduction of heart rate are the major concern of alpha-2 adrenoceptor agonist as clonidine. These effects are justified by decreasing the central nervous system sympathetic outflow due to activation of alpha-2 adrenoceptor. With the aim to investigate if LPSF-PT-31, GIRSUPAN could cross the brain barrier and reduces the hemodynamic response, Wistar male rats weighing 230-280 grams were prepared for blood pressure and electrocardiogram (EKG) recording. The heart rate was estimated by analysis of EKG. LPSF-PT-31, GIRSUPAN (10 mg/kg) was injected trough external jugular vein in a single dose in awaked animals. The blood pressure and the heart rate were not changed showing that LPSF-PT-31, GIRSUPAN is a stable compound for the cardiovascular system differently that occurs with clonidine.

For `O=C1CNC(=O)N1Cc1c(F)cccc1Cl` [LPSF-PT-31, 3-(2-chloro-6-fluoro-benzyl)-imidazolidine-2,4-dione], the “maximal effect (% AA)” value ([1]; 15 mg·kg^−1 i.p.) was “about 80 % AA”, the “duration of plateau of analgesic effect” value ([1]; i.p.) was 40 to 50 min and the “time of peak of analgesic effect” value ([1]; i.p.) was “approximately 20 min”. The “time to complete recovery from the analgesic effect” value ([1]; i.p.) was 100 to 120 min, the “effect on % AA (analgesic activity)” value ([1]; i.p. 1, 5, 10 and 15 mg·kg^−1, hot plate 52° C., FIG. 1) was “increased the % AA in a dose-dependent manner” and the “reversal of analgesic effect by naloxone (antagonist of opioid receptor)” value ([1]; naloxone 1 mg·kg^−1 i.p.) was “partially reversed”. The “reversal of analgesic effect by flumazenil (antagonist of benzodiazepine receptor)” value ([1]; previous treatment with flumazenil 0.3 mg·kg^−1) was “not reversed”, the “reversal of analgesic effect by yohimbine (antagonist of alpha-2 adrenoceptor)” value ([1]; yohimbine 5 mg·kg^−1 i.p., compound 10 mg·kg^−1, FIG. 2) was “completely reversed” and the “type of interaction with morphine (isobolographic analysis of DE50)” value [2] was “strong synergic interaction”. The “duration of maximal analgesic effect” value ([3]; intrathecal) was 180 min, the “maximal analgesic effect measured by Hot Plate” value ([3]; intrathecal) was “ca. 40%” and the “effect on pain reaction after intrathecal administration” value ([3]; intrathecal 20, 40, 80 or 160 μg in 50 μl, FIG. 4) was “reduces the pain reaction after intrathecal administration in a dose-dependent manner”. The “reduction of motor activity” value ([4]; 10 mg·kg^−1, motor activity measured during 20 min, FIG. 5) was “ca. 80%”, the “intensity of motor activity reduction versus positive control” value ([4]; 10 mg·kg^−1, positive control midazolam, FIG. 5) was “comparable to midazolam” and the “reversal of decrease of motor activity by yohimbine” value ([4]; yohimbine) was “completely reversed”. For the same compound, the blood pressure [5] was “not changed” and the “heart rate (estimated by analysis of EKG)” value [5] was “not changed”.
